Source: US11311512B2, “Lymph directing prodrugs” (priority 2014, dated 2022)
Several values for one entry are separate records, joined by “and”; a condition that tells them apart may be missing. Equal entries are not always repeated. Where two headings read alike, the source gives them in different places.

Method: Lipid formulations containing the compound of interest were then administered to the animals, the lymph collected and drug concentrations in the lymph subsequently quantified.
Lipid-based formulations of the compounds of the invention or control compounds were prepared as previously described (Trevaskis, N. L. et al., Pharmaceutical Research, 2005, 22(11), 1863-1870). Briefly, approximately 2 mg of the compound (1 mg in the case of Compound 35 and Compound 1), 40 mg oleic acid and 25 mg Tween 80 were mixed in a glass vial until equilibrated (gentle heat (below 50° C.) may be applied for a short period).
[…] This was to eliminate the potential for the relatively high and variable levels of endogenous testosterone in male rats interfering with the quantification of exogenously dosed testosterone. Rats (240-320 g) were maintained on a standard diet and fasted overnight with free access to water prior to experiments. Anaesthetised rats were placed on a heated pad at 37° C. and cannulas were inserted into the duodenum (for formulation administration and rehydration), mesenteric lymph duct (for lymph collection) and carotid artery (for blood collection) as previously described (Edwards et al. Advanced Drug Delivery Reviews 2001, 50(1), 45-60). Post-surgery, rats were re-hydrated for 0.5 h via intraduodenal infusion of normal saline at 2.8 mL/h. The lipid formulations were infused into the duodenum at 2.8 mL/h for 2 h, after which the infusion was changed to 2.8 mL/h normal saline for the remainder of the experiment. Lymph was continuously collected for 6 to 8 h into pre-weighed Eppendorf tubes containing 10 μL of 1,000 IU/mL heparin. The collection tubes were changed hourly and lymph flow was measured gravimetrically. Aliquots of hourly lymph samples were stored at −80° C. prior to assay.
Drug concentration in lymph is expressed as total drug and includes free drug and drug associated with different glycerides. This is assayed by hydrolysis of lymph (to liberate drug from any re-esterified glycerides) prior to assessment of free drug.
FIG. 1 illustrates the cumulative lymphatic transport of total testosterone related derivatives (% of administered dose) versus time in anaesthetised mesenteric lymph duct cannulated female SD rats following intraduodenal infusion of formulations from 0 to 2 h. Each Formulation contained 2 mg of the exemplified compound or the control, testosterone undecanoate (TU), dispersed in 40 mg oleic acid, 25 mg Tween 80 and 5.6 ml PBS.

[1] = male, Sprague-Dawley, rat, in vivo
[2] = anaesthetised, mesenteric lymph-duct cannulated male SD rats, intraduodenal infusion 0-2 h, cumulative over 8 h
[3] = lymphatic transport of total MPA derivatives, male SD rats, intraduodenal infusion

COc1c(C)c2c(c(O)c1C/C=C(\C)CCC(=O)O)C(=O)OC2 [MPA, mycophenolic acid, reference compound]
Fold increase (compared with MPA dosed group) [1]: 1.0 fold | Transport of total MPA derivatives in lymph (% of dose) [1]: 0.17 ± 0.05 % of dose

CCCCCCCCCCCCCCCC(=O)OCC(COC(=O)CCCCCCCCCCCCCCC)OC(=O)CC(C)CCCCCCCCCCCCOC(=O)CCC(C)=CCc1c(O)c2c(c(C)c1OC)COC2=O (mixture of isomers) [Compound 39]
Transport of total MPA derivatives in lymph (% of dose) [2]: 28.4 % of dose and 28.4 ± 3.2 % of dose | Fold increase (compared with MPA dosed group) [3]: 167.0 fold

CCCCCCCCCCCCCCCC(=O)OCC(COC(=O)CCCCCCCCCCCCCCC)OC(=O)CCCCCCCCCCCCCCCCCCCCOC(=O)CC/C(C)=C/Cc1c(O)c2c(c(C)c1OC)COC2=O [Compound 35]
Transport of total MPA derivatives in lymph (% of dose) [2]: 9.7 ± 1.0 % of dose | Fold increase (compared with MPA dosed group) [3]: 58.1 fold

CC(=O)Oc1ccccc1C(=O)O [ASP, aspirin, reference compound]
Increase fold (compared with parent drug group) [1]: 1.0 fold | Transport of total drug derivatives in lymph (% of dose) [1]: 1.3 ± 0.2 % of dose

CCCCCCCCCCCCCCCC(=O)OCC(COC(=O)CCCCCCCCCCCCCCC)OC(=O)CCCCCCCOC(=O)CC/C(C)=C/Cc1c(O)c2c(c(C)c1OC)COC2=O [Compound 33]
Transport of total MPA derivatives in lymph (% of dose) [2]: 10.5 ± 0.7 % of dose | Fold increase (compared with MPA dosed group) [3]: 62.8 fold

CCCCCCCCCCCCCCCC(=O)OCC(COC(=O)CCCCCCCCCCCCCCC)OC(=O)CCCCCCCCCCCCCCOC(=O)CC/C(C)=C/Cc1c(O)c2c(c(C)c1OC)COC2=O [Compound 34]
Transport of total MPA derivatives in lymph (% of dose) [2]: 22.1 % of dose and 22.1 ± 3.5 % of dose | Transport of total MPA derivatives in lymph (% of dose) (anaesthetised, mesenteric lymph-duct cannulated male SD rats, intraduodenal infusion 0-2 h, cumulative over 8 h, listed as compound 34): 22.1 % of dose | Fold increase (compared with MPA dosed group) [3]: 132.0 fold

1-(1,3-Bis(palmitoyloxy)propan-2-yl) 10-(1-(isopropylamino)-3-(4-(2-methoxyethyl)phen-oxy)propan-2-yl) decanedioate [Compound 3]
Transport of total drug derivatives in lymph (% of dose) (anaesthetised, mesenteric lymph-duct cannulated male SD rats, intraduodenal infusion, MET, ATV, ASP, SER or CEL derivatives): 14.2 ± 1.5 % of dose | Increase fold (compared with parent drug group) (lymphatic transport of total drug derivatives, male SD rats, intraduodenal infusion): 591.7 fold

CCCCCCCCCCCCCCCC(=O)OCC(COC(=O)CCCCCCCCCCCCCCC)OC(=O)CC(C)CCOC(=O)CCC(C)=CCc1c(O)c2c(c(C)c1OC)COC2=O (mixture of isomers) [Compound 38]
Transport of total MPA derivatives in lymph (% of dose) [2]: 12.1 % of dose and 12.1 ± 1.0 % of dose | Fold increase (compared with MPA dosed group) [3]: 72.3 fold

CCCCCCCCCCCCCCCC(=O)OCC(COC(=O)CCCCCCCCCCCCCCC)OC(=O)C(C)CCCCOC(=O)CCC(C)=CCc1c(O)c2c(c(C)c1OC)COC2=O (mixture of isomers) [Compound 37]
Transport of total MPA derivatives in lymph (% of dose) [2]: 12.6 % of dose and 12.6 ± 1.7 % of dose | Fold increase (compared with MPA dosed group) [3]: 75.0 fold

CCCCCCCCCCCCCCCC(=O)OCC(COC(=O)CCCCCCCCCCCCCCC)OC(=O)CCCCSC(=O)CC/C(C)=C/Cc1c(O)c2c(c(C)c1OC)COC2=O [Compound 40]
Transport of total MPA derivatives in lymph (% of dose) [2]: 10.2 ± 3.0 % of dose | Fold increase (compared with MPA dosed group) [3]: 61.1 fold

CCCCCCCCCCCCCCCC(=O)OCC(COC(=O)CCCCCCCCCCCCCCC)OC(=O)C(C)CCCOC(=O)CCC(C)=CCc1c(O)c2c(c(C)c1OC)COC2=O (mixture of isomers) [Compound 36]
Transport of total MPA derivatives in lymph (% of dose) [2]: 9.1 % of dose and 9.1 ± 1.4 % of dose | Fold increase (compared with MPA dosed group) [3]: 54.6 fold

COCCc1ccc(OCC(O)CNC(C)C)cc1 (stereo not shown) [MET, metoprolol, reference compound]
Increase fold (compared with parent drug group) [1]: 1.0 fold | Transport of total drug derivatives in lymph (% of dose) [1]: 0.02 ± 0.01 % of dose
